Experimental data: the SangsterLogP compilation

| logP | Compound |
| --- | --- |
| 4.1 | C/C=C/C=C/C(=O)N1Cc2cc(OCCc3nc(/C=C/CCCC(C)C)oc3C)ccc2CC1C(=O)O (configuration not stated) |
| 3.1 | C/C=C/C=C/C(=O)N1Cc2cc(OCCc3nc(/C=C/C(C)(C)C)oc3C)ccc2C[C@H]1C(=O)O |
| 3.81 | C/C=C/C=C/C(=O)N1Cc2cc(OCCc3nc(/C=C/CCC(C)C)oc3C)ccc2C[C@H]1C(=O)O |
| 3.68 | C/C=C/C=C/C(=O)N1Cc2cc(OCCc3nc(/C=C/C(CC)CC)oc3C)ccc2C[C@H]1C(=O)O |
| 3.23 | C/C=C/C=C/C(=O)N1Cc2cc(OCCc3nc(C=CCC(C)C)oc3C)ccc2CC1C(=O)O (configuration not stated) |
| 3.52 | C/C=C/C=C/C(=O)N1Cc2cc(OCCc3nc(/C=C/C(C)(C)CC)oc3C)ccc2C[C@H]1C(=O)O |
| 3.59 | C/C=C/C=C/C(=O)N1Cc2cc(OCCc3nc(/C=C/CC(C)(C)C)oc3C)ccc2C[C@H]1C(=O)O |
| 3.84 | C/C=C/C=C/C(=O)N1Cc2cc(OCCc3nc(/C=C/C(C)CCC)oc3C)ccc2C[C@H]1C(=O)O (some centres not stated) |
| 4.29 | C/C=C/C=C/C(=O)N1Cc2cc(OCCc3nc(/C(C)=C/CCC(C)C)oc3C)ccc2C[C@H]1C(=O)O |
| 2.75 | C/C=C/C=C/C(=O)N1Cc2cc(OCCc3nc(/C(=C/C)CC)oc3C)ccc2C[C@H]1C(=O)O |
| 2.77 | C/C=C/C=C/C(=O)N1Cc2cc(OCCc3nc(/C=C/C(C)C)oc3C)ccc2C[C@H]1C(=O)O |
| 2.88 | C/C=C/C=C/C(=O)N1Cc2cc(OCCc3nc(/C(C)=C/CC)oc3C)ccc2C[C@H]1C(=O)O |

Second part, the molecule before the results:

| Compound | logP |
| --- | --- |
| CCOC/C=C/C(=O)N1Cc2cc(OCCc3coc(/C=C/CCCC(C)C)n3)ccc2CC1C(=O)O (configuration not stated) | 3.52 |
| Cc1oc(/C=C/CCC(C)C)nc1CCOc1ccc2c(c1)CN(C(=O)/C=C/c1ccco1)[C@H](C(=O)O)C2 | 3.76 |
| C=CCCC(=O)N1Cc2cc(OCCc3nc(/C=C/CCC(C)C)oc3C)ccc2C[C@H]1C(=O)O | 3.76 |
| CCC(O)/C=C/C(=O)N1Cc2cc(OCCc3coc(/C=C/CCCC(C)C)n3)ccc2CC1C(=O)O (configuration not stated) | 3.33 |
| C/C=C/C=C/C(=O)N1Cc2cc(OCCc3nc(CCCCC(C)C)oc3C)ccc2C[C@H]1C(=O)O | 3.79 |
| CCO/C=C/C(=O)N1Cc2cc(OCCc3coc(/C=C/CCCC(C)C)n3)ccc2CC1C(=O)O (configuration not stated) | 3.56 |
| Cc1oc(/C=C/CCC(C)C)nc1CCOc1ccc2c(c1)CN(C(=O)/C=C/C=C/CO)C(C(=O)O)C2 (configuration not stated) | 3.09 |
| CC(C)CCC/C=C/c1nc(CCOc2ccc3c(c2)CN(C(=O)/C=C/c2cccs2)C(C(=O)O)C3)co1 (configuration not stated) | 3.95 |
| CC(C)CCC/C=C/c1nc(CCOc2ccc3c(c2)CN(C(=O)/C=C/C2CC2)C(C(=O)O)C3)co1 (configuration not stated) | 3.69 |
| CC(C)CCC/C=C/c1nc(CCOc2ccc3c(c2)CN(C(=O)/C=C/c2ccco2)C(C(=O)O)C3)co1 (configuration not stated) | 3.76 |
| CCOCCC(=O)N1Cc2cc(OCCc3coc(/C=C/CCCC(C)C)n3)ccc2CC1C(=O)O (configuration not stated) | 3.48 |
| C=CCCCC(=O)N1Cc2cc(OCCc3coc(/C=C/CCCC(C)C)n3)ccc2CC1C(=O)O (configuration not stated) | 4.03 |
| CCC/C=C/C(=O)N1Cc2cc(OCCc3coc(/C=C/CCCC(C)C)n3)ccc2CC1C(=O)O (configuration not stated) | 4.04 |
| CCCCCC(=O)N1Cc2cc(OCCc3coc(/C=C/CCCC(C)C)n3)ccc2CC1C(=O)O (configuration not stated) | 4.34 |
| CC(C)=C/C=C/C(=O)N1Cc2cc(OCCc3coc(/C=C/CCCC(C)C)n3)ccc2CC1C(=O)O (configuration not stated) | 4.09 |
